Assay results as given in ChEMBL document CHEMBL5665443, “Enzyme Inhibitor Single Concentration assay results for EUbOPEN Chemogenomics Library” (2024).
Where “and” joins values, the source holds several entries; their conditions need not be identical. Equal values may be shown once.

How the values were obtained:
[1] = biological target: DNA-3-methyladenine glycosylase (Homo sapiens) (UniProt P29372); conditions: Compound Concentration 10.0 uM, Hit No;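 note: enzyme assay where MPG cuts a quenched duplex DNA oligonucleotide probe, paired with APE1 for strand incision and turnover, read as fluorescence at 594 nm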
Description: Inhibition of MPG by quantifying inhibition of MPG-mediated cleavage and dissociation of quenched duplex DNA oligonucleotides, measured as fluorescence at 594 nm. To generate a functional strand incision and increase turn-over this assay is coupled to APE1.

[2] = biological target: T1, Adenine DNA glycosylase (Homo sapiens) (UniProt Q9UIF7); conditions: Compound Concentration 10.0 uM, Hit No;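 note: human MUTYH activity read as 594 nm fluorescence from cleavage and release of a quenched DNA duplex, coupled with APE1 for strand incision, lower signal meaning inhibition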
T1 sequence (whole entry): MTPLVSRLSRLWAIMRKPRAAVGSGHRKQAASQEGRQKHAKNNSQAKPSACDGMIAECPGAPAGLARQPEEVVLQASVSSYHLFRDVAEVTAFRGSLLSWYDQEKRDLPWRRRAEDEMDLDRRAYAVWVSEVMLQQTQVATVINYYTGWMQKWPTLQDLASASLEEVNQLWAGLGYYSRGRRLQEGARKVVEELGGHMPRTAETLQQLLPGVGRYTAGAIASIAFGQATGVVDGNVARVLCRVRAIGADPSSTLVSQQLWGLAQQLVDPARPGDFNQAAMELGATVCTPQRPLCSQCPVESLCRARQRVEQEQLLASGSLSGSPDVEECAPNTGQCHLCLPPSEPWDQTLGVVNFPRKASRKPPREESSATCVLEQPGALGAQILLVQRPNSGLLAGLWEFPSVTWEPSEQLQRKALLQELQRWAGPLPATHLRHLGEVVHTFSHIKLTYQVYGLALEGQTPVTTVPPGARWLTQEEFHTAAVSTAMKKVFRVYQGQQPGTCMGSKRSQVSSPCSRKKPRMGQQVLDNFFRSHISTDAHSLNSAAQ
Description: Inhibition of MUTYH by quantifying inhibition of MUTYH-mediated cleavage and dissociation of quenched duplex DNA oligonucleotides, measured as fluorescence at 594 nm. To generate a functional strand incision and increase turn-over this assay is coupled to APE1.

[3] = biological target: Endonuclease 8-like 1 (Homo sapiens) (UniProt Q96FI4); conditions: Compound Concentration 10.0 uM, Hit No;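 note: fluorescence at 594 nm from quenched duplex DNA oligonucleotides released by NEIL1 cleavage and strand separation, reported as reduction of this enzyme activity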
Description: Inhibition of NEIL1 by quantifying inhibition of NEIL1-mediated cleavage and dissociation of quenched duplex DNA oligonucleotides, measured as fluorescence at 594 nm.

[4] = biological target: T2, Endonuclease 8-like 2 (Homo sapiens) (UniProt Q969S2); conditions: Compound Concentration 10.0 uM, Hit No;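 note: fluorescence at 594 nm reports NEIL2 cutting and release of a quenched double-stranded DNA oligo substrate, reduced signal read as inhibition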
T2 sequence (whole entry): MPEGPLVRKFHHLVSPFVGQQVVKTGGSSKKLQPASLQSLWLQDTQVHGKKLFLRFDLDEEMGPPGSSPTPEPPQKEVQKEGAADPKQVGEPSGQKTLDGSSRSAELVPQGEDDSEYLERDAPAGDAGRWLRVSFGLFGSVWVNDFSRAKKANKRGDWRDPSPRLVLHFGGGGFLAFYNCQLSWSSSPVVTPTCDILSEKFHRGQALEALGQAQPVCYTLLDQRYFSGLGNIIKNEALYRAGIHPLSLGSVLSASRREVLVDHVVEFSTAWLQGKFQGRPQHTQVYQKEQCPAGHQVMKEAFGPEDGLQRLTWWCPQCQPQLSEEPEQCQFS
Description: Inhibition of NEIL2 by quantifying inhibition of NEIL2-mediated cleavage and dissociation of quenched duplex DNA oligonucleotides, measured as fluorescence at 594 nm.

[5] = biological target: N-glycosylase/DNA lyase (Homo sapiens) (UniProt O15527); conditions: Compound Concentration 10.0 uM;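 note: OGG1 cleavage of a quenched duplex DNA oligonucleotide, coupled to APE1 for strand incision, read as fluorescence at 594 nm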
Description: Inhibition of OGG1 by quantifying inhibition of OGG1-mediated cleavage and dissociation of quenched duplex DNA oligonucleotides, measured as fluorescence at 594 nm. To generate a functional strand incision and increase turn-over this assay is coupled to APE1.

[6] = biological target: G/T mismatch-specific thymine DNA glycosylase (Homo sapiens) (UniProt Q13569); conditions: Compound Concentration 10.0 uM, Hit No;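 note: human TDG cleavage of quenched duplex DNA oligonucleotides coupled to APE1, strand release read as fluorescence at 594 nm, inhibition of TDG activity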
Description: Inhibition of TDG by quantifying inhibition of TDG-mediated cleavage and dissociation of quenched duplex DNA oligonucleotides, measured as fluorescence at 594 nm. To generate a functional strand incision and increase turn-over this assay is coupled to APE1.

[7] = biological target: T3, Single-strand selective monofunctional uracil DNA glycosylase (Homo sapiens) (UniProt Q53HV7); conditions: Compound Concentration 10.0 uM, Hit No;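 note: enzymatic SMUG1 assay coupled with APE1, reading fluorescence at 594 nm released when a quenched double-stranded DNA oligonucleotide substrate is cleaved and separated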
T3 sequence (whole entry): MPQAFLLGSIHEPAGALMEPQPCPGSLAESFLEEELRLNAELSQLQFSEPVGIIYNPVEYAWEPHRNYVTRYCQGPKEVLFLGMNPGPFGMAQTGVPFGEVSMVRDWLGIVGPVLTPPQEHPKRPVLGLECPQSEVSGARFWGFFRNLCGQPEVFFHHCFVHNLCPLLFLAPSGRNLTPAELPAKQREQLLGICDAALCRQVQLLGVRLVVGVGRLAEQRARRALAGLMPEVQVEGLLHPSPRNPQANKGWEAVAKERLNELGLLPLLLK
Description: Inhibition of SMUG1 by quantifying inhibition of SMUG1-mediated cleavage and dissociation of quenched duplex DNA oligonucleotides, measured as fluorescence at 594 nm. To generate a functional strand incision and increase turn-over this assay is coupled to APE1.

[8] = biological target: Uracil-DNA glycosylase (Homo sapiens) (UniProt P13051); conditions: Compound Concentration 10.0 uM, Hit No;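 note: UNG excision on a quenched double-stranded DNA oligo probe, with APE1 added for strand incision and turnover, read as fluorescence at 594 nm as strands separate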
Description: Inhibition of UNG by quantifying inhibition of UNG-mediated cleavage and dissociation of quenched duplex DNA oligonucleotides, measured as fluorescence at 594 nm. To generate a functional strand incision and increase turn-over this assay is coupled to APE1.

[9] = biological target: Methyl-CpG-binding domain protein 4 (Homo sapiens) (UniProt O95243); conditions: Compound Concentration 10.0 uM, Hit No;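 note: MBD4 activity read as fluorescence at 594 nm from cleavage and release of a quenched duplex DNA oligonucleotide, with APE1 coupled to incise the strand and raise turnover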
Methyl-CpG-binding domain protein 4 (Homo sapiens), sequence (O95243 whole entry, the tested form may be a part): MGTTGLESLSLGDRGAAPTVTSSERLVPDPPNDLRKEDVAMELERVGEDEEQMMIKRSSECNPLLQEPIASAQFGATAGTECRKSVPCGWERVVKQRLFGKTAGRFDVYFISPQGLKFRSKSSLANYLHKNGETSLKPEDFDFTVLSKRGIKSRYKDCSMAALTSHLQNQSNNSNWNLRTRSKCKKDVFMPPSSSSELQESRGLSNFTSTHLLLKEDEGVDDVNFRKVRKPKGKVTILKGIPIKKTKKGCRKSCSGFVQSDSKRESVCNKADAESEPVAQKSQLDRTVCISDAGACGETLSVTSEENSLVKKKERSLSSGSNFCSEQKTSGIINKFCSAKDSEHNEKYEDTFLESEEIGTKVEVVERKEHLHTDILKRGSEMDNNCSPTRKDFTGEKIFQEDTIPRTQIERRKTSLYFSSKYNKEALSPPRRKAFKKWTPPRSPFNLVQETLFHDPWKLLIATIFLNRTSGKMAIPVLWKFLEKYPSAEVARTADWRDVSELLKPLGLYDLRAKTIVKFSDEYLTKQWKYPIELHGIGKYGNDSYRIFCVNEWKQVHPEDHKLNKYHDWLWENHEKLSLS
Description: Inhibition of MBD4 by quantifying inhibition of MBD4-mediated cleavage and dissociation of quenched duplex DNA oligonucleotides, measured as fluorescence at 594 nm. To generate a functional strand incision and increase turn-over this assay is coupled to APE1.

DNA-3-methyladenine glycosylase (Homo sapiens), sequence (P29372 whole entry): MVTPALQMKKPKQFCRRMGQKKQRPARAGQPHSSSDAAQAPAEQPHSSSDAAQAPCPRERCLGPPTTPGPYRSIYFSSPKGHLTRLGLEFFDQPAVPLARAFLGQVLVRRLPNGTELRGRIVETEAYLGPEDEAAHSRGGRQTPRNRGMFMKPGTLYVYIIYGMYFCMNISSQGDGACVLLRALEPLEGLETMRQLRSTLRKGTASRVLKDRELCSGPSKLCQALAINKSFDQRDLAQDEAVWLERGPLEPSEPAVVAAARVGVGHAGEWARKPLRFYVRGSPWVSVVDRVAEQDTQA
Uracil-DNA glycosylase (Homo sapiens), sequence (P13051 whole entry, the tested form may be a part): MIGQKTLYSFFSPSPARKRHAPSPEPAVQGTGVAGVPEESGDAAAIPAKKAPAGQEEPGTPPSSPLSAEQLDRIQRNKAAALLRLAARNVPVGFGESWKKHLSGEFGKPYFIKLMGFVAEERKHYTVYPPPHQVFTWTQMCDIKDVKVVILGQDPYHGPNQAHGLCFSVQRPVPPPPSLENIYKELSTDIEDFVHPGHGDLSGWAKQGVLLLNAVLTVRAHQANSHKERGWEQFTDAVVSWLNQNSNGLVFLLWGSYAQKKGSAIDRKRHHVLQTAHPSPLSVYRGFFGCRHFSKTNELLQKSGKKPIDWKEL
N-glycosylase/DNA lyase (Homo sapiens), sequence (O15527 whole entry): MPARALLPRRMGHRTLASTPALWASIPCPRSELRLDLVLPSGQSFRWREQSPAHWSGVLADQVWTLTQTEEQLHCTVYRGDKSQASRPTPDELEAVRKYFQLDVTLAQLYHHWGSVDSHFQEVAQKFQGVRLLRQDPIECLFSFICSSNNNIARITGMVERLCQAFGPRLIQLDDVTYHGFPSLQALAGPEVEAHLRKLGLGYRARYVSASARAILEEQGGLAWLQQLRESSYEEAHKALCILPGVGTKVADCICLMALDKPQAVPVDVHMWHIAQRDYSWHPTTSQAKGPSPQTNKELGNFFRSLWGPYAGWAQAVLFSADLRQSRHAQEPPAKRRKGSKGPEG
G/T mismatch-specific thymine DNA glycosylase (Homo sapiens), sequence (Q13569 whole entry): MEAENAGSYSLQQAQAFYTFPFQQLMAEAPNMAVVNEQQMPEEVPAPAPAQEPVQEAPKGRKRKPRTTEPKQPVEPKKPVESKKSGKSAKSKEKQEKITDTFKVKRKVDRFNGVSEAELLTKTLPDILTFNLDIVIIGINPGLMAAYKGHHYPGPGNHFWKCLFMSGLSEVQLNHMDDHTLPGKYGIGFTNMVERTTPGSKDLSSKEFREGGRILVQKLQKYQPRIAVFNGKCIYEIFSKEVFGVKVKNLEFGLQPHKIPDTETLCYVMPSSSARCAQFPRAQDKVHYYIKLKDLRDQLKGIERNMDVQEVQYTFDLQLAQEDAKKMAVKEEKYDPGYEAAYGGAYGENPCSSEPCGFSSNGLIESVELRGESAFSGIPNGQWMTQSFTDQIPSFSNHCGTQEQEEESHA
Endonuclease 8-like 1 (Homo sapiens), sequence (Q96FI4 whole entry): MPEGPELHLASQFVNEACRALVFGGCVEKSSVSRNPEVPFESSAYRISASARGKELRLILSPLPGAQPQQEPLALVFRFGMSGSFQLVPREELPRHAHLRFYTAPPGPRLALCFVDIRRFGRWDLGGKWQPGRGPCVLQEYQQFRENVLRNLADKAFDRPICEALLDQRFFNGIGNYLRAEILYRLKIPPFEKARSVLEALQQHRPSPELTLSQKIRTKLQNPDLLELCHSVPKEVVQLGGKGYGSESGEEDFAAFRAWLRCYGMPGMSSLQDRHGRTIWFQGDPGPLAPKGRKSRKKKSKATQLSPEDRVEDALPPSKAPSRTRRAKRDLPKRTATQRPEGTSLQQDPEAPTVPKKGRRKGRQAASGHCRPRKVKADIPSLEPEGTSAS

Row | SMILES | inhibition [1] | inhibition [2] | inhibition [3] | inhibition [4] | inhibition ([5]; Hit No) | inhibition [6] | inhibition [7] | inhibition [8] | inhibition [9] | inhibition ([5]; Hit Yes)
1 | CC(C)(C)c1ccc(S(=O)(=O)Nc2ccc(Cl)cc2C(=O)c2cc[n+]([O-])cc2)cc1 | 1.3% | -4.97% | 3.35% | -0.483% | 1.79% | -0.448% |  |  |  | 
2 | Cc1cnc(CNCC2(F)CCN(C(=O)c3ccc(F)c(Cl)c3)CC2)nc1 | 6.04% | -3.43% | 2.32% | 7.5% | -1.55% | 6.93% | -8.17% | -8.07% |  | 
3 | Cc1c(F)cccc1NC(=O)Nc1ccc(Cl)c(S(=O)(=O)[C@H]2CCCNC2)c1O | 11.6% | -4.97% |  | -7.22% |  | 3.94% | -3.57% | -9.51% | 0.266% | 
4 | CC(C)Cc1ccc([C@@H](C)C(=O)NS(C)(=O)=O)cc1 | -0.553% | 19% | 1.28% | -1.98% | -2.17% | 3.68% | 0.354% | -7.7% |  | 
5 | CCc1nc2c(C)cc(C)nc2[nH]1 | 5.35% | -7.66% | 2.46% | 6.75% |  | -2.03% |  |  |  | 
6 | Cc1ccc(/C(=C\CN2CCCC2)c2ccccn2)cc1 | -1.09% | 2.96% | 5.28% | -2.48% | -5.51% | 1.66% |  |  | -4.67% | 
7 | Clc1ccc2nsnc2c1NC1=NCCN1 | 6.04% | -8.81% | -3.76% | 0.515% | -1.01% | 12% | 2.87% | -7.76% |  | 
8 | Cc1cc([C@@H](C)Nc2cccc(-c3cc(C)c(C(=O)N[C@@H](C)C(=O)O)c(C)c3)c2)ccc1Cl | 24.6% | 43.4% | -0.204% | -3.73% | 24.2% | 36.1% |  | -6.25% | 41.7% | 
9 | Cc1ccc(-c2ccc(F)cc2COc2ccc(CCC(=O)O)cc2)cc1 | 13.7% | 37.1% | 4.39% | 4.26% | 31.9% | 27.6% |  |  | 34.9% | 
10 | O=C(O)COc1cccc(CN(Cc2ccc(-n3cccn3)cc2)S(=O)(=O)c2cccnc2)c1 | 2.46% | 5.01% | 0.389% | -7.47% |  | -2.75% | -3.28% |  | 13.1% | 
11 | CCN(Cc1ccncc1)C(=O)C(CO)c1ccccc1 (configuration not stated) | 3.77% | 14% | -2.58% | 9.75% | -6.9% | 7.61% |  |  | 1.02% | 
12 | O=c1ccn([C@@H]2O[C@H](COP(=O)(O)OP(=O)(O)O)[C@@H](O)[C@H]2O)c(=O)[nH]1 | -2.06% | 23.4% | -1.39% | 2.51% | -4.12% | 19.1% |  | -4.06% |  | 
13 | Cc1onc(-c2ccccc2Cl)c1C(=O)N(C)c1ccc(Cl)cc1 | -3.37% | 15.8% | -2.13% | 7% | -3.42% | 12.4% | 3.65% | -8.91% |  | 
14 | C=CC(=O)Nc1ccc2[nH]c(=O)n(C3CCN(C(=O)c4ccc(-c5nc6cc[nH]c(=O)c6cc5-c5ccccc5)cc4)CC3)c2c1 | -2.18% | 1.89% | -0.919% | 19.4% | 78.5% | 58.7% |  | -1.3% | -5.4% | 
15 | O=C(Cc1ccccc1)Nc1nc2ccc(Cl)cc2c2nc(-c3ccco3)nn12 | 6.12% | 13.8% | -6.88% | -4.48% | -2.3% | 4.82% |  |  | -7.05% | 
16 | CC#C[C@@H](CC(=O)O)c1ccc(OCc2cccc(-c3ccc(C(F)(F)F)cc3)c2)cc1 | 28.7% | 47.2% | 1.13% | 0.764% |  | 41.7% |  | -4.48% | 48.1% | 64.3%
17 | CC(C)NCC(O)COc1cccc2[nH]ccc12 (configuration not stated) | 6.08% | -5.48% | 2.76% | 4.01% | -5.87% | 3.97% |  | -6.49% |  | 
18 | Nc1nc(NCCc2ccc(O)cc2)nc2nc(-c3ccco3)nn12 | -1.9% | 18.6% | -1.69% | 6% | -7.81% | -0.119% | -6.72% |  |  | 
19 | c1ccc(NCc2ccc(CNc3ccccn3)cc2)nc1 | -3.14% | -5.87% | 3.5% | -4.48% | -3.65% | 13.4% |  |  |  | 
20 | CCCn1c(=O)c2[nH]c(-c3ccc(OCC(=O)Nc4ccc(C#N)cc4)cc3)nc2n(CCC)c1=O | -6.3% | -3.95% |  |  | -7.63% | 1.64% |  | -6.42% |  | 
21 | N[C@H](C(=O)O)c1ccc(C(=O)O)c(C(=O)O)c1 | -6.3% | 10.4% | -4.06% | 5.76% | -7.96% | 4.6% | -4.49% |  |  | 
22 | COc1cccc(-c2c(C)n(Cc3c(F)cccc3C(F)(F)F)c(=O)n(C[C@H](NCCCC(=O)O)c3ccccc3)c2=O)c1F | 1.07% | 1.3% | -2.87% | -9.22% | -3.13% | 27.2% |  |  | -5.02% | 
23 | CCC(=N\O)/C(C)=C/c1ccc(F)cc1 | 12.6% | -8.19% and -8.38% | 0.164% and -0.139% | -6.1% and 1.43% | 8.29% and 3.66% |  | 15.6% and 4.45% | -0.0369% and -2.61% |  | 
24 | CN1CCN2c3ncccc3Cc3ccccc3C2C1 (configuration not stated) | -7.53% | -2.92% | 3.95% | 10% | -6.38% | -8.16% |  |  |  | 
25 | Clc1cccc(Cl)c1NC1=NCCN1 | -5.72% | 14.7% | -1.69% | 1.76% | -5.49% | 0.825% |  |  |  | 
26 | CNC[C@H](O)c1ccc(O)c(O)c1 | 10.2% | 28.8% | 9.88% |  | 30.3% | 37.5% |  |  | 46.8% | 
27 | CCC[C@H](Oc1cc(C)c(-n2cc(C(F)(F)F)cn2)c(C)c1)c1ccc(C(=O)NCCC(=O)O)cc1 | -2.83% | 39.2% | 4.69% | 6.5% | 8.48% | 24.9% |  |  | 19.8% | 
28 | CC(C)C[C@H](NC(=O)N1CCCCCC1)C(=O)N[C@H](Cc1cn(C)c2ccccc12)C(=O)N[C@H](Cc1ccccn1)C(=O)O | -0.244% | 9.62% | -0.0556% | 6% | -9.37% | 3.66% |  | -6.34% | -1.3% | 
29 | Cc1cccc(NC(=O)N[C@@H]2N=C(c3ccccc3)c3ccccc3N(C)C2=O)c1 | 17% | 10.5% |  | -1.73% | -6.8% | 12.3% | -5.61% |  |  | 
30 | COCCCN1CCC(NC(=O)c2cc(Cl)c(N)c3c2OCC3)CC1 | 8.09% | 17.3% | -6.73% | -0.983% | -3.13% | 2.17% |  |  |  | 
